Experimental data as given in patent US20250129091A1, “THIENOPYRROLOTRIAZINE COMPOUNDS, THEIR PREPARATION AND THEIR THERAPEUTIC USE” (Sanofi, priority 2022, published 2025).
Where a name gives a salt, the structure may show the parent alone. Read-outs that look alike come from different tables or passages of the source.

Legend:
TNF-α secretion = TNF-α secretion assay (PMA-differentiated THP-1 cells, LPS-triggered, MSD readout); format: cell-based; settings: LPS 24 h; for inhibition at 3 µM / inhibition at 10 µM: Homo sapiens
Experimental: Monocytic THP-1 cells (DSMZ) were maintained in RPMI media (RPMI 1640 Medium (1×) +10% FBS, biowest S181H). Cells were then differentiated at 160,000 cells per well in 96-well flat bottom cell culture plates with RPMI+0.1% Bovine Serum Albumin solution and 0.5 μM phorbol 12-myristate 13-acetate (PMA; Sigma, ref:P8139) overnight at 37° C. Experimental compounds were prepared and added as described above. TNF-α secretion was triggered by the addition of 0.5 μg/mL LPS (invivoGen, tlrl-3pelps) and cells were incubated for 24 h. 2.5 μL supernatant was removed, and TNF-α levels were monitored using an MSD assay (mesoscale, K15049) according to manufacturers' instructions.
(§1) IC50 values were calculated from the plot of percentage of inhibition versus the inhibitor concentration by a logistics fit according to: y=A2+(A1−A2)/(1+(x/IC50)^p) where y is the %-inhibition at the inhibitor concentration, x. A1 is the lowest inhibition value, i.e., 0%, and A2 the maximum inhibition value, i.e., 100%. The exponent, p, is the Hill coefficient. The curve fitting was conducted with an internally developed software.

NLRP3 inflammasome = experiment: IL-1β secretion assay (LPS-primed, nigericin-activated THP-1 cells, MSD readout); format: cell-based; settings: read-out: IL1b IC50
Experimental: Monocytic THP-1 cells (DSMZ) were maintained in RPMI media (RPMI 1640 Medium (1×) +10% FBS, Eurobio CVFSVFOO—OU). Cells were then plated at 16,000 cells per well in 96-well round bottom cell culture plates (TPP, ref 92097) and maintained with RPMI and 0.1% Bovine Serum Albumin solution. Activation of the NLRP3 inflammasome requires both an NF-kB-dependent priming step and the addition of a NLRP3 activator. The priming step was induced by LPS (10 ng/mL, Sigma, ref:L4391) for 3 h at 37° C., then compound, in a 1:3.10 serial dilution series in DMSO 1:100, and the activator nigericin (Sigma Aldrich, ref: SML1779) 10 μM (final concentration) were added to the cells and co-incubated for 2 h. 50 μL supernatant was removed, and IL-1β levels were monitored using an MSD assay (Electro Chemical Luminescence Immunoassay (ECLI) according to manufacturers' instructions.
as §1

[1] = Homo sapiens, THP-1, LPS-primed

| Compound | IC50 (NLRP3 inflammasome; [1]) [nM] | inhibition at 3 µM (TNF-α secretion; compound at 3 μM) [%] | inhibition at 10 µM (TNF-α secretion; compound at 10 μM) [%] | also measured |
| --- | --- | --- | --- | --- |
| CC(C)c1nn(CC(=O)N[C@@H]2CCCN(C)C2)c(=O)c2cc3ccsc3n12 [Example 1, (R)-2-(8-isopropyl-5-oxothieno[3′,2′:4,5]pyrrolo[1,2-d][1,2,4]triazin-6(5H)-yl)-N-(1-methylpiperidin-3-yl)acetamide] | 661 | -5.1 | -17.7 |  |
| CC(C)c1nn(CC(=O)Nc2cncs2)c(=O)c2cc3ccsc3n12 [Example 2, 2-(8-isopropyl-5-oxothieno[3′,2′:4,5]pyrrolo[1,2-d][1,2,4]triazin-6(5H)-yl)-N-(thiazol-5-yl) acetamide] |  |  |  | TNF-a inhibition @ 3 μM (TNF-α secretion; compound at 3 μM): 3.3; TNF-a inhibition @ 10 μM (TNF-α secretion; compound at 10 μM): −51.5; IC50 (NLRP3 inflammasome; LPS-primed): 577 nM |
| CC(C)c1nn(CC(=O)N[C@@H]2CCCN(C[C@H](C)O)C2)c(=O)c2cc3ccsc3n12 [Example 3, N—((R)-1-((S)-2-hydroxypropyl)piperidin-3-yl)-2-(8-isopropyl-5-oxothieno[3′,2′:4,5]pyrrolo[1,2-d][1,2,4]triazin-6(5H)-yl)acetamide] | 335 | 3.1 | -8.2 |  |
| CC(C)c1nn(CC(=O)N[C@@H]2CCCN(C)C2)c(=O)c2cc3cc(Cl)sc3n12 [Example 5, (R)-2-(2-chloro-8-isopropyl-5-oxothieno[3′,2′:4,5]pyrrolo[1,2-d][1,2,4]triazin-6(5H)-yl)-N-(1-methylpiperidin-3-yl)acetamide 2,2,2-trifluoroacetate] | 1230 | -18.2 | -14.1 |  |
| CC(C)c1nn(CC(=O)N[C@@H]2CCCN(C)C2)c(=O)c2cc3cc(Br)sc3n12 [Example 8, (R)-2-(2-bromo-8-isopropyl-5-oxothieno[3′,2′:4,5]pyrrolo[1,2-d][1,2,4]triazin-6(5H)-yl)-N-(1-methylpiperidin-3-yl)acetamide] | 801 | -10 | -21.8 |  |
| C=O.CC(C)c1nn(CC(=O)N[C@@H]2CCCN(CCO)C2)c(=O)c2cc3ccsc3n12 [Example 19, (R)—N-(1-(2-hydroxyethyl)piperidin-3-yl)-2-(8-isopropyl-5-oxothieno [3′,2′:4,5]pyrrolo[1,2-d][1,2,4]triazin-6(5H)-yl)acetamide compound with formaldehyde] |  | 27.7 | -22.7 | IC50 (NLRP3 inflammasome; Homo sapiens, LPS-primed): 225 nM |
| CC(C)c1nn(CC(=O)NC2CN(C)CC(F)(F)C2)c(=O)c2cc3ccsc3n12 (centres unmarked) [Example 35, N-(5,5-difluoro-1-methylpiperidin-3-yl)-2-(8-isopropyl-5-oxothieno[3′,2′:4,5]pyrrolo[1,2-d][1,2,4]triazin-6(5H)-yl)acetamide] |  | 23 | 5.7 |  |
| CC(C)c1nn(CC(=O)N[C@@H]2CCCN(C[C@@H](C)O)C2)c(=O)c2cc3ccsc3n12 [Example 78, N-[(3R)-1-[(2R)-2-hydroxypropyl]piperidin-3-yl]-2-(8-isopropyl-5-oxothieno[3′,2′:4,5]pyrrolo [1,2-d][1,2,4]triazin-6(5H)-yl)acetamide] | 326 |  |  |  |
| CCOC(=O)C(C)(C)N1CCCC(NC(=O)Cn2nc(C(C)C)n3c(cc4ccsc43)c2=O)C1 (centres unmarked) [Example 80, ethyl 2-methyl-2-[3-[[2-(8-isopropyl-5-oxothieno[3′,2′:4,5]pyrrolo[1,2-d][1,2,4]triazin-6(5H)-yl)acetyl]amino]piperidin-1-yl]propanoate] | 322 |  |  |  |
| CC(C)c1nn(CC(=O)NC2CC3(C2)CN(C)C3)c(=O)c2cc3ccsc3n12 [Example 83, N-(2-methyl-2-azaspiro[3.3]heptan-6-yl)-2-(8-isopropyl-5-oxothieno[3′,2′:4,5]pyrrolo[1,2-d][1,2,4]triazin-6(5H)-yl)acetamide] | 1880 |  |  |  |
| CC(C)c1nn(CC(=O)Nc2cncnc2)c(=O)c2cc3ccsc3n12 [Example 84, 2-(8-isopropyl-5-oxothieno[3′,2′:4,5]pyrrolo[1,2-d][1,2,4]triazin-6(5H)-yl)-N-pyrimidin-5-ylacetamide] | 5950 |  |  |  |
| CC(C)c1nn(CC(=O)NC2CCNC(=O)C2)c(=O)c2cc3ccsc3n12 (centres unmarked) [Example 85, 2-(12-isopropyl-9-oxo-3-thia-1,10,11-triazatricyclo[6.4.0.02,6]dodeca-2(6),4,7,11-tetraen-10-yl)-N-(2-oxo-4-piperidyl)acetamide] | > 10000 |  |  |  |
| CC(C)c1nn(CC(=O)NC2CCN(C3CC3)C2)c(=O)c2cc3ccsc3n12 (centres unmarked) [Example 86, N-(1-cyclopropylpyrrolidin-3-yl)-2-(12-isopropyl-9-oxo-3-thia-1,10,11-triazatricyclo [6.4.0.02,6]dodeca-2(6),4,7,11-tetraen-10-yl)acetamide] | > 10000 |  |  |  |
| CC(C)c1nn(CC(=O)NC2C[C@@H]3CN[C@H]2C3)c(=O)c2cc3ccsc3n12 (stereo partly drawn) [Example 88, N-[(1S,4R)-2-azabicyclo[2.2.1]heptan-6-yl]-2-(12-isopropyl-9-oxo-3-thia-1,10,11-triazatricyclo[6.4.0.02,6]dodeca-2(6),4,7,11-tetraen-10-yl)acetamidehydrochloride] | > 10000 |  |  |  |

More lines, in order of falling IC50 (NLRP3 inflammasome; [1]), values ahead:

| IC50 (NLRP3 inflammasome; [1]) [nM] | Compound | inhibition at 3 µM (TNF-α secretion; compound at 3 μM) [%] | inhibition at 10 µM (TNF-α secretion; compound at 10 μM) [%] | also measured |
| --- | --- | --- | --- | --- |
| 300 | CC(C)c1nn(CC(=O)N[C@@H]2CCCN(CC3CCCC3)C2)c(=O)c2cc3ccsc3n12 [Example 17, (R)—N-(1-(cyclopentylmethyl)piperidin-3-yl)-2-(8-isopropyl-5-oxothieno[3′,2′:4,5]pyrrolo [1,2-d][1,2,4]triazin-6(5H)-yl)acetamide] | 11.2 | 31.4 |  |
| 237 | CC(C)CN1CCC[C@@H](NC(=O)Cn2nc(C(C)C)n3c(cc4ccsc43)c2=O)C1 [Example 14, (R)—N-(1-isobutylpiperidin-3-yl)-2-(8-isopropyl-5-oxothieno[3′,2′:4,5]pyrrolo[1,2-d][1,2,4]triazin-6(5H)-yl)acetamide] | -0.5 | -18.8 |  |
| 168 | O=C(Cn1nc(C2CC2)n2c(cc3cc(Cl)sc32)c1=O)N[C@@H]1CCCN(C2CC2)C1 [Example 13, (R)-2-(2-chloro-8-cyclopropyl-5-oxothieno[3′,2′:4,5]pyrrolo[1,2-d][1,2,4]triazin-6(5H)-yl)-N-(1-cyclopropylpiperidin-3-yl)acetamide] | 5.2 | 22.2 |  |
| 78 | CC(C)c1nn(CC(=O)N[C@@H]2CCCN(CCC#N)C2)c(=O)c2cc3ccsc3n12 [Example 77, N-[(3R)-1-(2-cyanoethyl)piperidin-3-yl]-2-(8-isopropyl-5-oxothieno[3′,2′:4,5]pyrrolo[1,2-d][1,2,4]triazin-6(5H)-yl)acetamide] |  |  |  |
| 54 | CC(C)c1nn(CC(=O)N[C@@H]2CCCN(C3CC3)C2)c(=O)c2cc3ccsc3n12 [Example 4, (R)—N-(1-cyclopropylpiperidin-3-yl)-2-(8-isopropyl-5-oxothieno[3′,2′:4,5]pyrrolo[1,2-d][1,2,4]triazin-6(5H)-yl)acetamide] | 21.5 | 7.5 |  |
| 29 | CC(C)c1nn(CC(=O)N[C@@H]2CCCN(C(C)(C)CO)C2)c(=O)c2cc3ccsc3n12 [Example 79, N-[(3R)-1-(1-hydroxy-2-methylpropan-2-yl)piperidin-3-yl]-2-(8-isopropyl-5-oxothieno [3′,2′:4,5]pyrrolo[1,2-d][1,2,4]triazin-6(5H)-yl)acetamide] |  |  |  |
